Here are results for 27 compounds from the supplement of paper PMC12137928.

In the assay the test system is HCT116. The following applies: 72 h. The method, boiled down:
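Four-parameter Hill fits gave IC50 and maximal efficacy. The data were CellTiter-Glo luminescence readings in HCT116 cells, normalized so that vehicle was 0% and positive control was -100%, with pattern correction afterwards.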

Structures can show the parent of a compound that is named as a salt. Where only a bound is given, the exact number is not on record here.

As for `CC(C)(Sc1cc(C(C)(C)C)c(O)c(C(C)(C)C)c1)Sc1cc(C(C)(C)C)c(O)c(C(C)(C)C)c1` [Probucol], the IC50 cell viability runs as follows: (ICRF193 0 nM) above 45.8 µM; (ICRF193 200 nM) above 45.8 µM.
Regarding `CC(C)Cc1ccc(CC(=O)O)cc1` [Ibufenac], the IC50 cell viability was above 45.8 µM (ICRF193 0 nM) and above 45.8 µM (ICRF193 200 nM).
`NNC(=O)c1ccncc1` [Isoniazid]: the IC50 cell viability is above 45.8 µM (ICRF193 0 nM) and above 45.8 µM (ICRF193 200 nM).
Consider `O=[N+]([O-])O[C@@H]1CO[C@H]2[C@@H]1OC[C@@H]2O` [Isosorbide mononitrate], for which the IC50 cell viability (ICRF193 0 nM) is above 45.8 µM and the IC50 cell viability (ICRF193 200 nM) was above 45.8 µM.
Turning to `CC(=O)N(CC(C)C(=O)O)c1c(I)cc(I)c(N)c1I` (centres undefined) [Iocetamic acid], the IC50 cell viability is above 45.8 µM (ICRF193 0 nM) and above 45.8 µM (ICRF193 200 nM).
For the compound `NC(=O)[C@@H]1C[C@]2(NC(=O)NC2=O)c2cc(F)ccc2O1` [Fidarestat], the IC50 cell viability was above 45.8 µM (ICRF193 0 nM) and above 45.8 µM (ICRF193 200 nM).
Regarding `CNCc1cc(-c2ccccc2F)n(S(=O)(=O)c2cccnc2)c1` [TAK 438], the IC50 cell viability reads like this: (ICRF193 0 nM) above 45.8 µM; (ICRF193 200 nM) above 45.8 µM.
`CNS(=O)(=O)CCc1ccc2[nH]cc(C3CCN(C)CC3)c2c1` [Naratriptan hydrochloride]: the IC50 cell viability was above 45.8 µM (ICRF193 0 nM) and above 45.8 µM (ICRF193 200 nM).
With `CCCC(=O)O[C@]1(C(=O)COC(C)=O)CC[C@H]2[C@@H]3C[C@H](F)C4=CC(=O)C=C[C@]4(C)[C@@]3(F)[C@@H](O)C[C@@]21C` [Difluprednate], the IC50 cell viability runs as follows: (ICRF193 0 nM) above 45.8 µM; (ICRF193 200 nM) above 45.8 µM.
Consider `CCN1C[C@]2(COC)[C@H](O)C[C@H](OC)[C@@]34[C@@H]5C[C@@]6(O)[C@H](OC(=O)c7ccccc7)[C@@H]5[C@@](OC(C)=O)([C@@H]([C@H](OC)[C@H]23)[C@@H]14)[C@@H](O)[C@@H]6OC` [Aconitine], for which the IC50 cell viability is, setting by setting: (ICRF193 0 nM) above 45.8 µM; (ICRF193 200 nM) above 45.8 µM.
With `CN1CCC(OC(c2ccccc2)c2ccccc2)CC1` [Diphenylpyraline hydrochloride], the IC50 cell viability is, setting by setting: (ICRF193 0 nM) above 45.8 µM; (ICRF193 200 nM) above 45.8 µM.
As for `Cc1ccc(O)cc1` [p-Cresol], the IC50 cell viability was above 45.8 µM (ICRF193 0 nM) and above 45.8 µM (ICRF193 200 nM).
Take `OC(CCN1CCCCC1)(c1ccccc1)C1CCCCC1` (centres undefined) [Trihexyphenidyl hydrochloride]: the IC50 cell viability reads like this: (ICRF193 0 nM) above 45.8 µM; (ICRF193 200 nM) above 45.8 µM.
As to `CCN1CCCC(OC(=O)C(c2ccccc2)c2ccccc2)C1` (centres undefined) [Piperidolate hydrochloride], the IC50 cell viability was above 45.8 µM (ICRF193 0 nM) and above 45.8 µM (ICRF193 200 nM).
Turning to `COCCCOc1cc(C[C@@H](C[C@H](N)[C@@H](O)C[C@H](C(=O)NCC(C)(C)C(N)=O)C(C)C)C(C)C)ccc1OC` [Aliskiren hemifumarate], the IC50 cell viability was above 45.8 µM (ICRF193 0 nM) and above 45.8 µM (ICRF193 200 nM).
On to `CCCCCCCCCCCCCCCCO` [1-Hexadecanol], for which the IC50 cell viability reads like this: (ICRF193 0 nM) above 45.8 µM; (ICRF193 200 nM) above 45.8 µM.
In turn, `CN1C(CSCC(F)(F)F)Nc2cc(Cl)c(S(N)(=O)=O)cc2S1(=O)=O` (centres undefined) [Polythiazide] returned an IC50 cell viability (ICRF193 0 nM) above 45.8 µM and an IC50 cell viability (ICRF193 200 nM) above 45.8 µM.
Compound `CC(=O)O[C@H]1CC[C@H]2[C@@H]3CC[C@H]4CC(=O)C=C(C)[C@]4(C)[C@H]3CC[C@]12C` [Methenolone (acetate)] registered an IC50 cell viability (ICRF193 0 nM) above 45.8 µM and an IC50 cell viability (ICRF193 200 nM) above 45.8 µM.
The compound `CS(=O)(=O)OCCCCOS(C)(=O)=O` [Busulfan] came in with an IC50 cell viability (ICRF193 0 nM) above 45.8 µM and an IC50 cell viability (ICRF193 200 nM) above 45.8 µM.
As for `CCCCCCCCCCCCCCCCOP(=O)([O-])OCC[N+](C)(C)C` [Miltefosine], the IC50 cell viability was above 45.8 µM (ICRF193 0 nM) and above 45.8 µM (ICRF193 200 nM).
As to `COC[C@H]1C[C@@H](c2nc(-c3ccc4c(c3)COc3cc5c(ccc6nc([C@@H]7CC[C@H](C)N7C(=O)[C@@H](NC(=O)OC)C(C)C)[nH]c65)cc3-4)c[nH]2)N(C(=O)[C@H](NC(=O)OC)c2ccccc2)C1` [Velpatasvir], the IC50 cell viability runs as follows: (ICRF193 0 nM) above 45.8 µM; (ICRF193 200 nM) above 45.8 µM.
In turn, `COc1ccccc1OCC(O)CN1CCN(CC(=O)Nc2c(C)cccc2C)CC1` (centres undefined) [Ranolazine] yielded an IC50 cell viability (ICRF193 0 nM) above 45.8 µM and an IC50 cell viability (ICRF193 200 nM) above 45.8 µM.
On to `O=C1CN2Cc3c(ccc(Cl)c3Cl)N=C2N1` [Anagrelide hydrochloride], for which the IC50 cell viability reads like this: (ICRF193 0 nM) above 45.8 µM; (ICRF193 200 nM) above 45.8 µM.
For `C=C(C)[C@H]1CC=C(C)CC1` [d-LIMONENE], the IC50 cell viability runs as follows: (ICRF193 0 nM) above 45.8 µM; (ICRF193 200 nM) above 45.8 µM.
As for `O=c1cc(CO)occ1O` [Kojic acid], the IC50 cell viability runs as follows: (ICRF193 0 nM) above 45.8 µM; (ICRF193 200 nM) above 45.8 µM.
In turn, `CCc1oc2ccccc2c1C(=O)c1cc(Br)c(O)c(Br)c1` [Benzbromarone] came in with an IC50 cell viability (ICRF193 0 nM) above 45.8 µM and an IC50 cell viability (ICRF193 200 nM) above 45.8 µM.
With `COP(=S)(OC)Oc1ccc(S(N)(=O)=O)cc1` [Cythioate], the IC50 cell viability is above 45.8 µM (ICRF193 0 nM) and above 45.8 µM (ICRF193 200 nM).
